Assay type in all cases: cell-based, human
In test [1] the test system is tubulin in SKOV-3 cells. As to the kind of experiment: Immunofluorescent analysis of tubulin morphology. The note with it: 24 h. As to the method:
After treatment with diluent (0.2% DMSO) or tested compounds at indicated concentrations for 24 h, SKOV-3 cells were fixed with methanol, permeabilized with 0.1% Triton X-100 in PBS and blocked by goat serum. Then the cells were incubated with a-tubulin antibody at 4° C. overnight, followed by incubation with Alexa 488 labeled secondary antibody (Jackson ImmunoResearch) at RT for 1 h. After being stained with DAPI, cells were examined and photographed with a Leica SP5 co-focal fluorescence microscope.

Test [2] relates to SKOV3. The test is described as follows: In vitro cell growth inhibition assay (MTT). Particulars: SK-OV-3; SKOV-3 human ovarian cancer cell line, 48 h, MTT; read-out: IC50 SKOV3. In a few lines: (§1)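 5000 cells/well, overnight attachment; compounds 48 h (vehicle 0.2% DMSO); MTT 0.5 mg/mL, 4 h, 37° C; formazan in DMSO; A540. IC50 from growth inhibition rates.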
For test [3], the system named is Hela. As to the kind of experiment: In vitro cell growth inhibition assay (MTT). Particulars: Hela human cervical cancer cell line, 48 h, MTT; read-out: IC50 Hela. In outline:
as §1

Test [4] deals with A2780. As to the kind of experiment: In vitro cell growth inhibition assay (MTT). The note with it: A2780 human ovarian cancer cell line, 48 h, MTT; read-out: IC50 A2780. In outline: as §1
Test [5] deals with MDA-MB-231. The test is described as follows: In vitro cell growth inhibition assay (MTT). Particulars: MDA-MB-231 human breast cancer cell line, 48 h, MTT; read-out: IC50 MDA-MB-231. In outline:
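Following overnight adherence of 5000 cells per well, compounds or 0.2% DMSO were applied for 48 h. Medium was then swapped for 0.5 mg/mL MTT medium (4 h, 37° C), crystals dissolved in DMSO, and plates read at 540 nm.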

The subject of test [6] is tubulin in Hela cells. As to the kind of experiment: Immunoblotting analysis of polymerized/depolymerized tubulin. Particulars: 6 h. As to the method: After being treated with diluent (0.2% DMSO), tested compound, CA-4 or PTX for 6 h, Hela cells were lysed with microtubulestabilizing buffer, containing 100 mM PIPES, pH 6.8, 1 mM MgCl2, 2 mM EGTA, 0.5% NP-40, 2 M glycerol, 5 μM PTX and protease inhibitors cocktail (Roche), and the lysate was centrifuged at 15,000 rpm for 15 min. Supernatant containing depolymerized tubulin was carefully collected, whereas pellet (polymerized tubulin) was further dissolved in SDS-lysis buffer (Beyotime, China). Equal amounts of supernatant and dissolved pellet were subjected to immunoblotting analysis as described above using atubulin antibody (Proteintech).
Background: Immunoblotting shows a protein as a band on a membrane.

For the compound `C=C1C(=O)N(c2cc(OC)c(OC)c(OC)c2)[C@H]1c1ccc(OC)c(O)c1` [Compound 1, (S)-4-(3-hydroxy-4-methoxyphenyl)-3-methylene-1-(3,4,5-trimethoxyphenyl)azetidin-2-one], the “tubulin assembly (immunofluorescence)” value in test [1] is “significantly inhibit tubulin aggregation”. For the same compound, the IC50 in test [2] is 128 nM; in test [3], 186 nM; in test [4] it was 143 nM; in test [5], 234 nM. Moreover, in test [6], the “polymerized tubulin (immunoblotting)” value is recorded as “significantly inhibit tubulin aggregation”.

One may read the IC50 as the concentration that inhibits the measured activity by half.

The values are drawn from patent US20200392150A1, “Diaryl-B-Lactam Compound and Preparation Method and Pharmaceutical Use Thereof” (Fudan University, priority 2016, published 2020).
